These results are taken from DBAASP.

In brackets after ≈: the same amount, converted by molar mass. Several values for one entry are separate records, joined by “and”; a condition that tells them apart may be missing. Identical values can stand only once.

Test systems include Bacillus subtilis; Escherichia coli ML-35p; Escherichia coli; Escherichia coli JW0013; Klebsiella pneumoniae; Pseudomonas aeruginosa; Salmonella typhimurium; Enterococcus faecium; Streptococcus pneumoniae; Acinetobacter baumannii; Shigella dysenteriae; Candida albicans; Staphylococcus aureus; Bacillus cereus.
What all share (test): ≥ marks a high value that may be exact or a test limit, other limits are often not marked, values filed in µg/mL are converted to µM
Test [1] deals with Candida albicans ATCC 2002.
The test system of test [2] is Staphylococcus aureus ATCC 25923.
Test [3] concerns Pseudomonas aeruginosa ATCC 27853.
Test [4] concerns Staphylococcus aureus ATCC 43300.
In test [5] the test system is Pseudomonas aeruginosa PAO1.
Test [6] deals with Escherichia coli ATCC 25922.
Test [7] deals with Pseudomonas aeruginosa CMCCB 10104.
For test [8], the system named is Micrococcus luteus ATCC 9341.
The test system of test [9] is Escherichia coli DH5alpha.
Test [10] has as its system Staphylococcus aureus ATCC 2592.
The subject of test [11] is Bacillus subtilis ATCC 6633.

For the molecule `CC[C@H](C)[C@H](NC(=O)CNC(=O)[C@H](CCSC)NC(=O)CNC(=O)[C@H](C)NC(=O)[C@H](CO)NC(=O)[C@H](CCCCN)NC(=O)[C@H](C)NC(=O)[C@H](CC(C)C)NC(=O)[C@H](CC(=O)O)NC(=O)[C@@H](NC(=O)[C@H](C)NC(=O)[C@@H](NC(=O)[C@@H](NC(=O)[C@H](CCCCN)NC(=O)[C@@H](NC(=O)[C@H](CCCCN)NC(=O)[C@H](CC(=O)O)NC(=O)[C@H](CCCN=C(N)N)NC(=O)[C@@H](NC(=O)[C@@H](N)CO)[C@@H](C)CC)[C@@H](C)CC)[C@@H](C)O)[C@@H](C)CC)[C@@H](C)CC)C(=O)N[C@@H](CC(C)C)C(=O)N[C@@H](CCCCN)C(=O)N[C@H](C(=O)N[C@@H](CC(C)C)C(=O)N[C@H](C(=O)N[C@H]1CSSC[C@@H](C(=O)O)NC(=O)[C@H](CO)NC(=O)[C@H](CCCCN)NC(=O)[C@H](CC(=O)O)NC(=O)[C@H](CC(C)C)NC(=O)[C@H](CCCCN)NC1=O)[C@@H](C)CC)[C@@H](C)O` [SIRDKIKTIAIDLAKSAGMGILKTLICKLDKSC], the MIC (commonly the lowest concentration found to suppress growth) in test [1] was 4.23 µM (≈ 15 µg/mL); against Bacillus subtilis, 5.28 µM (≈ 18.7 µg/mL); in test [2], 4.65 µM (≈ 16.5 µg/mL); in test [3], above 28.2 µM; against Escherichia coli ML-35p, 7.05 µM (≈ 25 µg/mL).
As to `CC[C@H](C)[C@H](NC(=O)[C@@H](NC(=O)[C@@H](NC(=O)[C@H](CCCN=C(N)N)NC(=O)[C@H](Cc1cnc[nH]1)NC(=O)[C@H](Cc1ccccc1)NC(=O)[C@H](Cc1cnc[nH]1)NC(=O)CNC(=O)[C@H](CCCCN)NC(=O)[C@H](CO)NC(=O)[C@H](CCCCN)NC(=O)[C@H](CC(=O)O)NC(=O)[C@H](Cc1cnc[nH]1)NC(=O)[C@H](CC(=O)O)NC(=O)[C@H](CCCN=C(N)N)NC(=O)CNC(=O)[C@H](CCC(=O)O)NC(=O)[C@H](CCC(N)=O)NC(=O)[C@H](CCCCN)NC(=O)[C@H](CC(N)=O)NC(=O)[C@@H](N)Cc1cnc[nH]1)C(C)C)C(C)C)C(=O)N[C@@H](Cc1cnc[nH]1)C(=O)N[C@@H](Cc1cnc[nH]1)C(=O)N[C@@H](CCCCN)C(=O)NCC(=O)NCC(=O)N[C@@H](CCCCN)C(=O)N[C@@H](C)C(=O)N[C@@H](Cc1cnc[nH]1)C(=O)O` [HNKQEGRDHDKSKGHFHRVVIHHKGGKAH], the MIC in test [4] is above 30 µM; against Escherichia coli, 1.05 µM and 1.17 µM; in test [5], 3.81 µM (≈ 12.9 µg/mL); in test [6], 1.67 µM (≈ 5.64 µg/mL); in test [7], 2.17 µM (≈ 7.34 µg/mL); in test [2], above 30 µM. Further, the MIC in test [3] stood at 1.57 µM (≈ 5.29 µg/mL); in the test with Escherichia coli ML-35p, 2.2 µM (≈ 7.44 µg/mL).
As for `CC[C@H](C)[C@H](N)C(=O)N[C@@H](CC(C)C)C(=O)N1CCC[C@H]1C(=O)N[C@@H](Cc1c[nH]c2ccccc12)C(=O)N[C@@H](CCCCN)C(=O)N[C@@H](Cc1c[nH]c2ccccc12)C(=O)N1CCC[C@H]1C(=O)N[C@@H](Cc1c[nH]c2ccccc12)C(=O)N[C@@H](Cc1c[nH]c2ccccc12)C(=O)N1CCC[C@H]1C(=O)N[C@@H](Cc1c[nH]c2ccccc12)C(=O)N[C@@H](CCCN=C(N)N)C(=O)N[C@@H](C)C(N)=O` [ILPWKWPWWPWRA], in test [8], the MIC amounted to 0.8 µM (≈ 1.46 µg/mL).
`CC[C@H](C)[C@H](NC(=O)[C@H](CCCN=C(N)N)NC(=O)[C@H](CCCN=C(N)N)NC(=O)[C@@H]1CCCN1C(=O)[C@@H]1CCCN1C(=O)[C@H](CCCN=C(N)N)NC(=O)[C@@H]1CCCN1C(=O)[C@H](CCCN=C(N)N)NC(=O)[C@@H]1CCCN1C(=O)[C@H](CC(C)C)NC(=O)[C@H](Cc1cnc[nH]1)NC(=O)[C@@H]1CCCN1C(=O)[C@@H]1CCCN1C(=O)[C@H](CCCCN)NC(=O)[C@H](CC(=O)O)NC(=O)[C@@H](N)C(C)C)C(=O)N[C@@H](Cc1ccc(O)cc1)C(=O)N[C@@H](CC(N)=O)C(=O)N[C@@H](CCCN=C(N)N)C(N)=O` [VDKPPHLPRPRPPRRIYNR] displayed an MIC in the test on Escherichia coli JW0013 of 2.03 µM (≈ 4.8 µg/mL).
Take `CC[C@H](C)[C@H](N)C(=O)N[C@@H](CC(C)C)C(=O)N1CCC[C@H]1C(=O)N[C@@H](Cc1c[nH]c2ccccc12)C(=O)N[C@@H](CCCCN)C(=O)N[C@@H](Cc1c[nH]c2ccccc12)C(=O)N[C@@H](C)C(=O)N[C@@H](Cc1c[nH]c2ccccc12)C(=O)N[C@@H](Cc1c[nH]c2ccccc12)C(=O)N1CCC[C@H]1C(=O)N[C@@H](Cc1c[nH]c2ccccc12)C(=O)N[C@@H](CCCN=C(N)N)C(=O)N[C@@H](CCCN=C(N)N)C(N)=O` [ILPWKWAWWPWRR]: the MIC came out at 15 µM (≈ 28.2 µg/mL) against Klebsiella pneumoniae; 50 µM (≈ 94 µg/mL) in the test with Pseudomonas aeruginosa; 10 µM (≈ 18.8 µg/mL) in test [9]; 25 µM (≈ 47 µg/mL) against Salmonella typhimurium; 0.4 µM (≈ 0.752 µg/mL) in [8].
As for `CC[C@H](C)[C@H](NC(=O)CNC(=O)[C@H](Cc1cnc[nH]1)NC(=O)CNC(=O)CN)C(=O)N[C@@H](CCCN=C(N)N)C(=O)N[C@@H](CCCN=C(N)N)C(=O)N[C@H](C(=O)N[C@H](C(=O)N[C@@H](CCCN=C(N)N)C(=O)N[C@@H](CCCCN)C(=O)N[C@H](C(=O)N[C@H](C(=O)N[C@@H](Cc1cnc[nH]1)C(=O)N[C@H](C(=O)N[C@H](C(=O)N[C@@H](CCCCN)C(=O)N[C@@H](CCCCN)C(N)=O)[C@@H](C)CC)[C@@H](C)CC)[C@@H](C)CC)[C@@H](C)CC)[C@@H](C)CC)[C@@H](C)CC` [GGHGIRRIIRKIIHIIKK], the MIC against Enterococcus faecium is 16 µM (≈ 33.7 µg/mL); in test [4] it was 16 µM (≈ 33.7 µg/mL); against Klebsiella pneumoniae, 16 µM (≈ 33.7 µg/mL); with Pseudomonas aeruginosa, above 16 µM; in test [6], above 16 µM; against Streptococcus pneumoniae, 16 µM (≈ 33.7 µg/mL). For the same molecule, the MIC in the test with Acinetobacter baumannii is 2.7 µM (≈ 5.69 µg/mL).
For `CC[C@H](C)[C@H](NC(=O)CNC(=O)[C@H](CO)NC(=O)[C@H](CC(C)C)NC(=O)[C@H](CC(C)C)NC(=O)CN)C(=O)N[C@@H](CC(C)C)C(=O)NCC(=O)N[C@@H](C)C(=O)NCC(=O)N[C@@H](CCCCN)C(=O)N[C@@H](Cc1cnc[nH]1)C(=O)N[C@H](C(=O)N[C@H](C(=O)N[C@H]1CSSC[C@@H](C(=O)O)NC(=O)[C@H](CC(C)C)NC(=O)CNC(=O)[C@H](CO)NC(=O)[C@H](CC(C)C)NC(=O)CNC1=O)C(C)C)[C@@H](C)CC` [GLLSGILGAGKHIVCGLSGLC], the MIC in the test with Shigella dysenteriae is 1.27 µM (≈ 2.5 µg/mL); in [1], 3.81 µM (≈ 7.49 µg/mL); in [10], 1.27 µM (≈ 2.5 µg/mL); against Escherichia coli, above 50.8 µM; in [6] it was 2.54 µM (≈ 5 µg/mL); in the test with Bacillus subtilis, 4.76 µM (≈ 9.36 µg/mL). The MIC against Candida albicans was found to be 4.76 µM (≈ 9.36 µg/mL); in the test with Staphylococcus aureus, 38.1 µM (≈ 74.9 µg/mL).
With `CC[C@H](C)[C@H](NC(=O)[C@H](CCCN=C(N)N)NC(=O)[C@H](CCCN=C(N)N)NC(=O)[C@@H]1CCCN1C(=O)[C@@H]1CCCN1C(=O)[C@H](CCCN=C(N)N)NC(=O)[C@@H]1CCCN1C(=O)[C@H](CCCN=C(N)N)NC(=O)[C@@H]1CCCN1C(=O)[C@H](CC(C)C)NC(=O)[C@H](Cc1ccc(O)cc1)NC(=O)[C@@H]1CCCN1C(=O)[C@@H]1CCCN1C(=O)[C@H](CCCCN)NC(=O)[C@H](CC(=O)O)NC(=O)[C@@H](N)Cc1c[nH]c2ccccc12)C(=O)N[C@@H](Cc1ccc(O)cc1)C(=O)N[C@@H](CC(N)=O)C(=O)N[C@@H](CCCN=C(N)N)C(N)=O` [WDKPPYLPRPRPPRRIYNR], the MIC against Escherichia coli JW0013 turned out to be 1.94 µM (≈ 4.8 µg/mL). In other words, the single-digit micromolar range.
The molecule `CC(C)C[C@H](N)C(=O)N1CCC[C@H]1C(=O)N[C@@H](Cc1c[nH]c2ccccc12)C(=O)N[C@@H](CCCCN)C(=O)N[C@@H](Cc1c[nH]c2ccccc12)C(=O)N1CCC[C@H]1C(=O)N[C@@H](Cc1c[nH]c2ccccc12)C(=O)N[C@@H](Cc1c[nH]c2ccccc12)C(=O)N1CCC[C@H]1C(=O)N[C@@H](Cc1c[nH]c2ccccc12)C(=O)N[C@@H](CCCN=C(N)N)C(=O)N[C@@H](CCCN=C(N)N)C(N)=O` [LPWKWPWWPWRR] came in with an MIC in test [8] of 0.2 µM (≈ 0.359 µg/mL).
Turning to `CC[C@H](C)[C@H](NC(=O)CN)C(=O)N[C@@H](CC(C)C)C(=O)N[C@@H](CC(=O)O)C(=O)N1CCC[C@H]1C(=O)N[C@H](C(=O)N[C@@H](CCCCN)C(=O)N[C@@H](C)C(=O)N[C@@H](Cc1ccccc1)C(=O)N[C@@H](C)C(=O)N[C@@H](CCCCN)C(=O)N[C@@H](C)C(=O)N[C@@H](C)C(=O)NCC(N)=O)[C@@H](C)CC` [GILDPIKAFAKAAG], the MIC is 8.02 µM (≈ 11 µg/mL) in test [11]; 4.01 µM (≈ 5.5 µg/mL) in the test on Shigella dysenteriae; at least 32.1 µM in test [1]; 16 µM (≈ 22 µg/mL) against Bacillus cereus; 4.01 µM (≈ 5.5 µg/mL) in test [10]; 8.02 µM (≈ 11 µg/mL) in the test on Pseudomonas aeruginosa. In [6], this molecule came in with an MIC of 16 µM (≈ 22 µg/mL).
